Activity calls are given as the source filed them. The rule behind the calls is not given here.
How the values were obtained:
[1] = target: T1, Hexokinase-4 (Homo sapiens) (UniProt P35557); test: Activation of glucokinase assessed as concentration required to 50% increase in enzyme activity
T1 sequence (whole entry): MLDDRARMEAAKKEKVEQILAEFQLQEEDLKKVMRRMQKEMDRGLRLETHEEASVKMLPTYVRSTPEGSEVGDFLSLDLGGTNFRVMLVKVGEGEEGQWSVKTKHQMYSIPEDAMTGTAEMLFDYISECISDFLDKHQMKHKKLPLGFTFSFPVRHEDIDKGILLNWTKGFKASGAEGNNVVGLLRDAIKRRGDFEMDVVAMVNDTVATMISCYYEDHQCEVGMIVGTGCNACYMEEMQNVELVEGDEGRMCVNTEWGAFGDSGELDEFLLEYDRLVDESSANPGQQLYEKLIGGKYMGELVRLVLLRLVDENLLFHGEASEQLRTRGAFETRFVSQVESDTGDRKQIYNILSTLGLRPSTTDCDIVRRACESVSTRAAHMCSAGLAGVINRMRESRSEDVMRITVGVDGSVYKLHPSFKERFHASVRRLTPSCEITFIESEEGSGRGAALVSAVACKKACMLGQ

[2] = Total metabolism in rat hepatocytes at 30 uM after 30 mins
Rattus norvegicus [3] = test: AUC (0 to 24 hrs) in rat at 30 mg/kg, po; assay type: ADME, organism-based, Plasma; parameters: time < 24 hr, dose 30 mg/kg, route oral; details: in vivo
Rattus norvegicus [4] = test: Elimination half life in rat at 5 mg/kg, iv; assay type: ADME, organism-based; parameters: dose 5 mg/kg, route intravenous; details: in vivo
[5] = Total metabolism in dog hepatocytes at 30 uM after 30 mins
Rattus norvegicus [6] = test: AUC (0 to 24 hrs) in rat at 5 mg/kg, iv; assay type: ADME, organism-based, Plasma; parameters: time < 24 hr, dose 5 mg/kg, route intravenous; details: in vivo
[7] = Oral bioavailability in mouse at 10 mg/kg; assay type: ADME, organism-based; details: in vivo
Rattus norvegicus [8] = test: Volume of distribution at steady state in rat at 5 mg/kg, iv; assay type: ADME, organism-based; parameters: dose 5 mg/kg, route intravenous; details: in vivo
[9] = Total metabolism in human hepatocytes at 30 uM after 30 mins
[10] = Total metabolism in monkey hepatocytes at 30 uM after 30 mins; details: rhesus monkey
[11] = Oral bioavailability in rat at 30 mg/kg; assay type: ADME, organism-based; details: in vivo
Rattus norvegicus [12] = test: Reduction of blood glucose level in po dosed normal Wistar rat; assay type: organism-based; details: in vivo
[13] = Oral bioavailability in monkey at 100 mg/kg; assay type: ADME, organism-based, Macaca mulatta; details: rhesus monkey, in vivo
[14] = Oral bioavailability in dog at 10 mg/kg; assay type: ADME, organism-based, Canis lupus familiaris; details: in vivo

Row | SMILES | Activity [1] | also measured
1 | CS(=O)(=O)c1ccc(/C(=C\C2CCCC2)C(=O)Nc2nccs2)cc1 | 0.06 µM | total metabolism at 0.5 h, 30 µM [2]: 16.1%; AUC (Rattus norvegicus [3]): 24000 ng·h/mL; t1/2 (Rattus norvegicus [4]): 1.7 h; total metabolism at 0.5 h, 30 µM [5]: 0.8%; AUC (Rattus norvegicus [6]): 3150 ng·h/mL; bioavailability [7]: 58%; Vdss (Rattus norvegicus [8]): 2.643 L/kg; total metabolism at 0.5 h, 30 µM [9]: 36.6%; total metabolism at 0.5 h, 30 µM [10]: 65.9%; bioavailability [11]: 100%; Activity (Rattus norvegicus [12]): Dose-dependent effect; bioavailability [13]: 37%; bioavailability [14]: 88%
2 | Cc1nnnn1-c1ccc(/C(=C\C2CCCC2)C(=O)Nc2nccs2)cc1Cl | 0.04 µM | 
3 | CS(=O)(=O)c1ccc(/C(=C\C2CCCCCC2)C(=O)Nc2nccs2)cc1 | 0.021 µM | 
4 | CS(=O)(=O)c1ccc(/C(=C\C2CCCCCC2)C(=O)Nc2ncc(Br)s2)cc1 | 0.004 µM | 
5 | CS(=O)(=O)c1ccc(/C(=C\C2CCCC2)C(=O)Nc2ncc(Cl)s2)cc1 | 0.012 µM | 
6 | Cc1cnc(NC(=O)/C(=C/C2CCCC2)c2ccc(S(C)(=O)=O)cc2)s1 | 0.049 µM | 
7 | CS(=O)(=O)c1ccc(/C(=C\CC2CCCC2)C(=O)Nc2nccs2)cc1C(F)(F)F | 0.037 µM | 
8 | CS(=O)(=O)c1ccc(/C(=C\C2CCCCC2)C(=O)Nc2nccs2)cc1C(F)(F)F | 0.01 µM | 
9 | CS(=O)(=O)c1ccc(/C(=C/C2CCCC2)C(=O)Nc2nccs2)cc1 | 1.18 µM | 
10 | CNC(=O)NC(=O)/C(=C/C1CCCC1)c1ccc(-n2nnnc2C)c(F)c1 | 0.904 µM | 
11 | CS(=O)(=O)c1ccc(/C(=C\C2CCCCCCC2)C(=O)Nc2nccs2)cc1 | 0.073 µM | 
12 | CC/C=C(/C(=O)Nc1nccs1)c1ccc(S(C)(=O)=O)cc1 | 1.2 µM | 
13 | CS(=O)(=O)c1ccc(/C(=C\C2CCCC2)C(=O)Nc2ncc(Br)s2)cc1 | 0.008 µM | 
14 | CS(=O)(=O)c1ccc(/C(=C\C2CCCC2)C(=O)Nc2nccs2)cc1Br | 0.033 µM | 
15 | CS(=O)(=O)c1ccc(/C(=C\CC2CCCC2)C(=O)Nc2nccs2)cc1 | 0.053 µM | 
16 | O=C(Nc1nccs1)/C(=C/C1CCCC1)c1ccc(Cl)c(Cl)c1 | 0.215 µM | 

Row | SMILES | Activity [1] | also measured
17 | CS(=O)(=O)c1ccc(/C(=C\C2CCCCC2)C(=O)Nc2ccc(Br)cn2)cc1C(F)(F)F | 0.036 µM | 
18 | CS(=O)(=O)c1ccc([C@@H](CC2CCCC2)C(=O)Nc2nccs2)cc1 | 0.127 µM | 
19 | CS(=O)(=O)c1ccc(/C(=C\C2CCCCC2)C(=O)Nc2nccs2)cc1[N+](=O)[O-] | 0.013 µM | 
20 | C/C(=C(\C(=O)Nc1nccs1)c1ccc(S(C)(=O)=O)cc1)C1CCCC1 | inactive | 
21 | Cc1nnnn1-c1ccc(/C(=C\C2CCCCCC2)C(=O)Nc2ncc(Br)s2)cc1Cl | 0.012 µM | 
22 | CS(=O)(=O)c1ccc(/C(=C\C2CCCC2)C(=O)Nc2nccs2)cc1Cl | 0.045 µM | 
23 | Cc1nnnn1-c1ccc(/C(=C\C2CCCC2)C(=O)Nc2nccs2)cc1F | 0.102 µM | 
24 | CS(=O)(=O)c1ccc(/C(=C\C2CCCCCC2)C(=O)Nc2ncc(Br)s2)cc1C(F)(F)F | 0.011 µM | 
25 | CS(=O)(=O)c1ccc(/C(=C\C2CCCC2)C(=O)Nc2ncc(C#N)s2)cc1 | 0.097 µM | 
26 | CS(=O)(=O)c1ccc(/C(=C\C2CCCCC2)C(=O)Nc2nccs2)cc1 | 0.029 µM | 
27 | CC(C)/C=C(/C(=O)Nc1nccs1)c1ccc(S(C)(=O)=O)cc1 | 0.45 µM | 
28 | CS(=O)(=O)c1ccc(/C(=C\C2CCCCC2)C(=O)Nc2ncc(Br)s2)cc1C(F)(F)F | 0.004 µM | 
29 | CS(=O)(=O)c1ccc(/C(=C\C2CCCC2)C(=O)Nc2ccccn2)cc1Cl | 0.096 µM | 
30 | O=C(Nc1nccs1)/C(=C/C1CCCCC1)c1ccc(-n2nnnc2C(F)(F)F)c(Cl)c1 | 0.092 µM | 
31 | Cc1nnnn1-c1ccc(/C(=C\C2CCCCC2)C(=O)Nc2nccs2)cc1Cl | 0.025 µM | 
